pIC50: −log10 of the molar value.
Assays:
[1] = system: T. cruzi (Colombiana strain); experiment: BNZ prophylaxis in mice (bioluminescence imaging, T-cell phenotyping, tissue qPCR); format: in vivo, Trypanosoma cruzi; conditions: for luciferase signal: 100 mg/kg twice weekly
Protocol: For the studies in mice, female mice, 8-12 weeks old were used for infections throughout the study. Sample sizes were determined based upon knowledge of heterogeneity in parasite burden during T. cruzi infection and published reports using similar experimental strategies. Data collected were included if productive T. cruzi infection was established (visualized by luciferase imaging or flow cytometry by detection of T. cruzi-tetramer specific CD8^+ T cells). The investigators were not blinded during the collection or analysis of data and mice were randomly assigned to treatment groups prior to the start of each experiment.
C57BL/6J (Stock No:000664) mice (C57BL/6 wild-type) were purchased from The Jackson Laboratory (Bar Harbor, ME) and C57BL/6J-IFN-gamma knockout mice (also known as B6.129S7-Ifngtm1 Ts/J; The Jackson Laboratory stock No 002287) were bred in-house at the University of Georgia Animal Facility. All the animals were maintained in the University of Georgia Animal Facility under specific pathogen-free conditions. T. cruzi tissue culture trypomastigotes of the Colombiana strain co-expressing firefly luciferase and tdTomato reporter proteins, generated as described previously (Sanchez-Valdez, et al., eLife 7 (2018), Bustamante, et al., Sci Transl Med. 12(567) 2020)), were maintained through passage in Vero cells (American Type Culture Collection (Manassas, VA)) cultured in RPMI 1640 medium with 10% fetal bovine serum at 37° C. in an atmosphere of 5% CO2. Mice were infected intraperitoneally with 10^3 tissue culture trypomastigotes of T. cruzi. This study was carried out in strict accordance with the Public Health Service Policy on Humane Care and Use of Laboratory Animals and Association for Assessment and Accreditation of Laboratory Animal Care accreditation guidelines. The protocol was approved by the University of Georgia Institutional Animal Care and Use Committee.
Mice were treated with benznidazole twice weekly at a 100 mg/kg/day and infected midway during the 3rd week of treatment (FIG. 8A). Benznidazole (BNZ—Elea Phoenix, Buenos Aires, Argentina) was prepared by pulverization of tablets followed by suspension in an aqueous solution of 1% sodium carboxymethylcellulose with 0.1% Tween 80 and delivered orally by gavage at a concentration dosage of 100 mg/kg of body weight. Each mouse received 0.2 ml of this suspension. Luciferase-expressing parasites were quantified in mice by bioluminescent detection. Mice were injected intraperitoneally with D-luciferin (150 mg/kg; PerkinElmer, Waltham, MA) and anesthetized using 2.5% (vol/vol) gaseous isofluorane in oxygen prior to imaging on an IVIS Lumina II imager (Xenogen, Alameda, CA) for an exposure time of 5 minutes, as previously described (Canavaci, et al., PLoS neglected tropical diseases 4(7):e740 (2010)). Quantification of bioluminescence and data analysis was performed using Aura Imaging Software version 4.0.7 (Spectral Instruments Imaging, Tucson, AZ).
Whole blood was incubated with a major histocompatibility complex I (MHC I) tetramer containing the T. cruzi transialidase TSKB20 peptide (ANYKFTLV (SEQ ID NO:124)/Kb) labeled with BV421 (Tetramer Core Facility at Emory University, Atlanta, GA) and the following labeled antibodies: anti-CD8 FITC, anti-CD4 APC EF780, anti-CD127 PE (BD Bioscience, San Jose, CA). At least 500,000 cells were acquired using a CyAn ADP flow cytometer (Beckman Coulter, Hialeah, Florida) and analyzed with FlowJo software v10.6.1 (Treestar, Inc., Ashland, OR).
[…]

T. cruzi (Brazil strain) = conditions: cited from earlier work
T. cruzi [2] = conditions: T. cruzi-infected NHPs; cited from earlier work
T. cruzi [3] = experiment: BNZ prophylaxis / treatment in kennel dogs (multiplex serology, blood PCR); format: in vivo, Trypanosoma cruzi; conditions: for impact of prophylaxis on new infections: high intensity transmission setting
Description: For studies in dogs, a small network of kennels was formed in central and south Texas with a history of triatomine vector occurrence and canine Chagas disease with owners who were willing to participate in the study. Kennels are identified through (i) canine patients with Chagas disease presenting to the cardiology unit at the TAMU VMTH and (ii) the TAMU Kissing Bug Community Science program, in which many dog owners submit triatomines collected from large kennel environments. At these large kennels, dogs are primarily bred and trained to aid hunting parties. Approximately 40-80 dogs reside within each kennel, and the predominant breeds include Belgian Malinois, Brittany spaniels, English pointers, German shorthaired pointers, Labrador retrievers, and hound dogs. Dogs >3 months of age, including males and females, were eligible for enrollment. Dogs identified after blood screening as seronegative based on multiplex serology and PCR-negative were randomly assigned to treatment groups. Neither the investigators, private veterinarian providing care to the dogs in the field, nor the dog owners were blinded to the treatment groups and no placebo was given to control dogs. Informed consent was obtained from dog owners prior to their participation, and this study was approved by the Texas A&M University Institutional Committee on Animal Use and Care and the Clinical Research Review Committee.
The limit of detection was set at the lowest standard of 0.0017 parasite equivalents per 50 ng of DNA. For detection of T. cruzi infection in dogs, DNA was extracted from 250 uL of the buffy coat fraction of EDTA-treated blood using the E.Z.N.A Tissue DNA kit (Omega Bio-Tek, Norcross, GA, USA) according to the manufacturer's protocol except 50 μL of elution buffer was used. T. cruzi-negative controls (phosphate buffered saline) were included in the DNA extractions. Samples were tested using qPCR for the presence of T. cruzi satellite DNA using the Cruzi 1/2 primer set and Cruzi 3 probe in a real-time assay, which amplifies a 166-bp segment of a repetitive nuclear DNA (Piron, et al., Acta tropica. 103(3):195-200 (2007), Cummings & Tarleton, Molecular and biochemical parasitology 129(1):53-9 (2003)) as previously described (Meyers, et al., PLoS neglected tropical diseases 11(8) 2017)). A sample was considered T. cruzi-positive if the Ct value was <35 (Curtis-Robles, et al., Vet Parasitol Reg Stud Reports 12:85-8 (2018)).
The 67 animals considered infection-negative were randomly assigned to either a control (no therapy) or a prophylactic group, which received twice weekly doses of BNZ at a level of not less than 10 mg/kg. This dosage is approximately the normal daily dose previously used (mostly ineffectively) to attempt drug-cure in dogs (Guedes, et al., Acta tropica. 84(1):9-17 (2002), Santos, et al., The Journal of antimicrobial chemotherapy. 67(8):1987-95 (2012), Cunha, et al., Experimental parasitology. 204:107711 (2019)). Dogs in these groups were then re-sampled 10-12 weeks (considered the midpoint of the transmission season) and ˜24 weeks (end of season).

CPSF3 = conditions: T. b. brucei; cited from earlier work
[4] = system: T. cruzi intracellular amastigotes; experiment: In vitro anti-T. cruzi amastigote growth inhibition assay (tdTomato fluorescence, 72 hours, Vero cells); format: cell-based, Trypanosoma cruzi; conditions: for in vitro activity against T. cruzi: in words
Protocol: (§1) The in vitro anti-T. cruzi amastiogote activity assay was performed and optimized based on the protocol described previously (Canavaci, et al., PLoS neglected tropical diseases 4, e740 (2010)). The change in tdTomato fluorescence intensity was determined as a measurement of growth over 72 hours of culture. For assaying drug effects on extracellular amastigotes, trypomastigotes were collected from infected Vero cell cultures and converted in acidic media as previously described (Tomlinson, et al., Parasitology 110 (Pt 5), 547-554 (1995)). Amastigotes (50,000/well) were incubated with 2-fold serial dilutions of compounds for 48 hours. The ATP production was used as an indication of growth in this case, and was measured by ATPlite Luminescence ATP Detection Assay System (PerkinElmer). Both fluorescence and luminescence were read using a BioTek Synergy Hybrid Multi-Mode reader equipped with the software Gene5 v 2.0 (BioTek). The dose-response curve was generated by […] analysis with GraphPad Prism v9.4.0 (GraphPad Software). IC50 was determined as the drug concentration that was required to inhibit 50% of growth compared to that of parasites with no drug exposure.

[5] = in vivo
[6] = system: T. cruzi extracellular amastigotes; experiment: Extracellular amastigote assay (ATPlite ATP production, 48 hours); format: cell-based, Trypanosoma cruzi; conditions: relative to parent ester (FIG. 2A)
Protocol: as §1

[7] = system: mammalian enzymes, receptors and ion channels; experiment: Safety pharmacology: affinity for a broad array of mammalian enzymes, receptors and ion channels; format: binding
Standard Ames study = format: cell-based
[8] = High dose 7-day toxicology studies in rats; format: in vivo; conditions: high dose 7-day toxicology studies, oral
cytochrome P450 enzymes = experiment: Inhibition of representative cytochrome P450 enzymes; format: in vitro ADME; conditions: 10 uM
[9] = dog BEHE4, 30 mg/kg twice a week, 24 week sample point

O=C(Cn1ccnc1[N+](=O)[O-])NCc1ccccc1 [benznidazole]
mice systemically parasite-positive ([1]; IFNγ KO mice, within 4 weeks of termination of prophylaxis): 4 of 5
overall effect of prophylaxis regimen ([1]; WT mice): prevented or truncated an infection in most cases
luciferase signal ([1]; WT mice, day 14 post-exposure or beyond): none of the mice in the BNZ-treated WT group had a detectable luciferase signal above background
mice negative for T. cruzi DNA (qPCR of skeletal muscle, heart, gut) ([1]; WT mice, week 33): at least 3 of the 5
fraction of CD127+ cells in the TSKb20-specific CD8+ T cell population ([1]; mice under prophylaxis vs no prophylaxis, through 21st week): substantially higher fraction of CD127+ cells
luciferase signal ([1]; some IFNγ KO mice, day 14 post-exposure (not at 12 weeks)): low level signal
cure of established infections (T. cruzi (Brazil strain); mice, weekly or twice weekly high dose (2.5-5× normal daily dose)): could cure established infections
generation of cure with 20 days of treatment (T. cruzi (Brazil strain); mice): only partially effective
failures in treatment trials (T. cruzi [2]): > 60%
blood PCR (T. cruzi [3]; [9]): PCR negative
serology (T. cruzi [3]; [9]): seronegative
impact of prophylaxis on new infections (T. cruzi [3]; dogs): no impact on the incidence of new infections
impact of prophylaxis on new infections (T. cruzi [3]; dogs, listed as BNZ): no impact on the number of new infections
new infections (T. cruzi [3]; dogs, prophylaxis group, twice weekly not less than 10 mg/kg): 26.5%

Cc1c(C(=O)N[C@H](C(=O)OCc2ccc(F)cc2)C(C)C)ccc2c1B(O)OC2 [AN11736]
effect of CPSF3 overexpression on killing (CPSF3): induced resistance to killing

Cc1c(C(=O)NC(C(=O)OCCN2CCOCC2)C(C)C)ccc2c1B(O)OC2 (centres unmarked) [AN15129]
in vitro activity against T. cruzi [4]: less active than neutral compounds

Cc1c(C(=O)N[C@H](C(=O)OCc2ccc(S(C)(=O)=O)cc2)C(C)C)ccc2c1B(O)OC2 [AN14561]
in vitro activity against T. cruzi [4]: significantly less potent

CC[C@@H]([C@H](C)O)n1ncn(-c2ccc(N3CCN(c4ccc(OC[C@@H]5CO[C@@](Cn6cncn6)(c6ccc(F)cc6F)C5)cc4)CC3)cc2)c1=O [posaconazole]
failures in treatment trials (T. cruzi [2]): 100%

CC(C)[C@H](NC(=O)c1ccc2c(c1)B(O)OC2)C(=O)OCc1ccccc1 [AN10443]
in vitro activity against T. cruzi [4]: submicromolar activity
metabolic stability in mouse S9 liver fraction assay: good metabolic stability

O=C(Nc1ccc2c(c1)B(O)OC2)c1ccc(F)cc1C(F)(F)F [AN4169]
cure of mice (T. cruzi (Brazil strain); mice infected with T. cruzi Brazil strain): 100%
therapeutic margin in rodent tolerability studies [5]: insufficient therapeutic margin

Cc1c(C(=O)N[C@H](C(=O)O)C(C)C)ccc2c1B(O)OC2 [AN14667]
reduced activity on intracellular amastigotes ([4]; relative to parent ester (FIG. 2A)): ~1000 fold
reduced activity on extracellular amastigotes [6]: ~1000 fold

Cc1c(C(=O)N[C@H](C(=O)OCc2ccccc2)C(C)C)ccc2c1B(O)OC2 [AN11735]
pIC50 ([4]; read-out: in vitro activity against T. cruzi (IC50)): > 8.00

Cc1c(C(=O)N[C@H](C(=O)OCc2ccc(F)cc2)C(C)(C)O)ccc2c1B(O)OC2 [AN14817]
affinity for a broad array of mammalian enzymes, receptors and ion channels [7]: little to no affinity
genotoxicity, Ames (Standard Ames study): non-genotoxic
dose proportionality of exposure [8]: non-dose proportional exposure
inhibition of representative cytochrome P450 enzymes (cytochrome P450 enzymes): did not demonstrate significant inhibition
